Test results: BindingDB's records for doi:10.1021/jm00196a019 (1979)
pIC50: −log10 of the molar value.

Test system: Enterococcus faecalis
Assay: Antibacterial activity against Streptococcus faecalis assessed as growth inhibition

Question: With Nc1nc(N)c2cc(S(=O)(=O)c3ccc4ccccc4c3)ccc2n1 [6-naphthalen-2-ylsulfonylquinazoline-2,4-diamine] as the compound, how does the pIC50 read?
Answer: The pIC50 was 10.70.
